Patent publication US20250091994A1, “RAS/RAF BINDING INHIBITOR COMPOUND” (NATIONAL UNIVERSITY CORPORATION KOBE UNIVERSITY, priority 2021, published 2025)

Columns and labels:
Format in all cases: cell-based
[1] = tested on: acute lymphoblastic leukemia cells MOLT4 (N-RasG12C); test: Cell growth inhibition, suspension cells MOLT4; details: Homo sapiens, MOLT-4; 3.3 μM (*), 72 hours; read-out: MOLT-4 (NRasG12C) % inhibition at 3.3 μM (*)
Experimental: (§1) The cell growth inhibitory activity of the compound of the present invention on human culture cells having active-type mutation in Ras was evaluated by the below-mentioned method using suspension cancer cells {acute lymphoblastic leukemia cells CCRF-CEM (K-RasG12D), promyelocytic leukemia cells HL60 (N-RasQ61L), acute lymphoblastic leukemia cells MOLT4 (N-RasG12C), and small cell lung cancer cells SHP77 (K-RasG12V)} and adherent cancer cells {large bowel cancer cells SW480 (K-RasG12V) and large bowel cancer cell SW620 (K-RasG12V)}.
(§2) (Case of suspension cells) The cells suspended in a medium containing 0.5% (v/v) fetal bovine serum (FBS) and each compound solution (final DMSO concentration: 1%) were seeded on a 96-well plate (2 to 4×10^4 cells/well), and the resulting mixture was then cultured at 37° C. in the presence of 5% CO2 for 72 hours.
(§3) Thereafter, the number of viable cells was measured using Cell Counting Reagent (Nacalai Tesque) in accordance with the manufacturer's instructions. Inhibition by the test compound was determined according to the following equation: […]

[2] = tested on: large bowel cancer cells SW480 (K-RasG12V); test: Cell growth inhibition, adherent cells SW480; details: Homo sapiens, 72 hours, read-out: SW480 (KRasG12V) % inhibition at 10 μM
Experimental: as §1
(Case of adherent cells) The cells suspended in a medium containing 10% FBS (1 to 2×10^4 cells/well) were seeded on a 96-well plate, and were then cultured at 37° C. in the presence of […]. Thereafter, the medium was exchanged with a medium containing […], to which each compound solution (final DMSO concentration: […]) had been added, and the cells were then cultured at 37° C. in the presence of […] for 72 hours.
as §3

[3] = tested on: phosphorylated MEK (pMEK) in HL60 cells; test: Ras-Raf signaling inhibition at culture cell level, pMEK; details: Homo sapiens, HL-60; HL60 (N-RasQ61L), 1 μM test compound, 3 hours
Experimental: (§4) The Ras-Raf signaling inhibitory activity of the compound of the present invention at a culture cell level was evaluated by the following method.
(§5) The HL60 cells described in Test Example 2 suspended in a medium containing 0.5% (v/v) FBS with each compound solution (final DMSO concentration: 1%), were seeded on a 12-well plate (2 to 4×10^5 cells/well), and the resulting mixture was then cultured at 37° C. in the presence of 5% CO2 for 3 hours.
(§6) After completion of the cell culture, proteins were extracted from the cells, using RIPA Buffer (Nacalai Tesque) containing a mixture of protease inhibitors and phosphatase inhibitors. An equivalent amount of protein was separated by standard SDS-PAGE and was then transferred onto a PVDF membrane. In order to detect the activation (phosphorylation) of MEK and ERK, downstream molecules of the Ras-Raf signaling pathway, the membrane was probed with 1000-fold diluted primary antibodies {phosphorylated MEK (pMEK: #9121), phosphorylated ERK (pERK: #9101), total MEK (tMEK: #9122), and total ERK (tERK: 9102); all from Cell signaling}, and then with a 1000-fold diluted horseradish peroxidase-labeled secondary antibody against rabbit immunoglobulin G. The immunoreactive signals were colored with EzWestLumi One (ATTO), and were then detected by Fusion FX (Vilber). Signal intensity was quantified by pixel counting. Inhibition by the test compound was determined according to the following equation: […]

[4] = tested on: large bowel cancer cell SW620 (K-RasG12V); test: Cell growth inhibition, adherent cells SW620; details: Homo sapiens, SW-620; 1 μM, 72 hours; read-out: SW620 (KRasG12V) % inhibition at 1 μM
How it was run: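 Adherent cells, 1 to 2×10^4 per well, grown overnight in 10% FBS, then exposed to compound in low-serum medium […] for 72 h at 37° C. Viable cells counted with Cell Counting Reagent; inhibition calculated relative to controls.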

[5] = tested on: small cell lung cancer cells SHP77 (K-RasG12V); test: Cell growth inhibition, suspension cells SHP77; details: Homo sapiens, 1 μM, 72 hours, read-out: SHP77 (KRasG12V) % inhibition at 1 μM
Experimental: as §1, §2, §3

[6] = tested on: Vemurafenib-resistant malignant melanoma cells A375R (BRafV600E); test: Cell growth inhibition, drug-resistant malignant melanoma A375R; details: Homo sapiens, in the presence of 1 μM PLX (Vemurafenib), 72 hours
Experimental: (§7) The human malignant melanoma cell lines A375 and HT 144, each having BRafV600E mutation, were cultured in a medium containing 10% FBS at 37° C. in the presence of 5% CO2. At the time point in which the cells became confluent, 1 μM Vemurafenib, a BRaf inhibitor, was added to the medium, and the cells were then cultured in the presence of Vemurafenib for 1 month or more (during which the medium was exchanged every 1 week), so as to acquire Vemurafenib-resistant malignant melanoma cells A375R and HT 144R. The resulting resistant cells were suspended in a medium containing 10% FBS, and then seeded on a 96-well plate to an amount of 1 to 2×10^4 cells/well. The cells were cultured at 37° C. in the presence of 5% CO2 overnight. Thereafter, the medium was exchanged with a medium containing 0.5% FBS, to which each compound solution (final DMSO concentration: 1%) and 1 μM Vemurafenib had been added, and the cells were then cultured at 37° C. in the presence of 5% CO2 for 72 hours.
as §3
(§8) Hereafter, Inhibition (%) by 3.3 μM compound is shown.

[7] = tested on: acute lymphoblastic leukemia cells CCRF-CEM (K-RasG12D); test: Cell growth inhibition, suspension cells CCRF-CEM; details: Homo sapiens, 1 μM, 72 hours, read-out: CCRF-CEM (KRasG12D) % inhibition at 1 μM
How it was run: (§9)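 Suspension cells, 2 to 4×10^4 per well, cultured with compound in medium with 0.5% FBS (1% DMSO final) for 72 h at 37° C, 5% CO2. Viable cells counted with Cell Counting Reagent; inhibition calculated relative to controls.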

[8] = tested on: promyelocytic leukemia cells HL60 (N-RasQ61L); test: Cell growth inhibition, suspension cells HL60; details: Homo sapiens, HL-60; 10 μM (***), 72 hours; read-out: HL-60 (NRasQ61L) % inhibition at 10 μM (***)
How it was run: as §9

[9] = tested on: Vemurafenib-resistant malignant melanoma cells HT 144R (BRafV600E); test: Cell growth inhibition, drug-resistant malignant melanoma HT144R; details: Homo sapiens, in the presence of 1 μM PLX (Vemurafenib), 72 hours
Experimental: as §7, §3, §8

[10] = tested on: phosphorylated ERK (pERK) in HL60 cells; test: Ras-Raf signaling inhibition at culture cell level, pERK; details: Homo sapiens, HL-60; HL60 (N-RasQ61L), 1 μM test compound, 3 hours
Experimental: as §4, §5, §6

Work on `COc1cc(/C=C2/C(=O)c3ccccc3N2C(C)=O)ccc1OCC(N)=O` [Example 1, (Z)-2-(4-((1-acetyl-3-oxoindolin-2-ylidene)methyl)-2-methoxyphenoxy)-acetamide] yielded an inhibition at 3.3 µM [1] of 88%, an inhibition at 10 µM [2] of 50% and an inhibition at 1 µM [3] of 30%. It also gave an inhibition at 1 µM [4] of 53%, an inhibition at 1 µM [5] of 73% and an inhibition at 3.3 µM [6] of 28%. The inhibition at 1 µM [7] was 51%, the inhibition at 10 µM [8] was 95% and the inhibition at 3.3 µM [9] was 66%. For the same compound, the inhibition at 1 µM [10] was 61%.
